target: T1, human CCR1 (Homo sapiens, UniProt P32246); experiment: CCR1 binding protocol (SPA, [125I]-MIP-1α displacement); settings: cell membrane expressing human CCR1, 0.1 nM [125I]-MIP-1α, 4 hours at ambient temperature; read-out: Relative potency (IC50)
T1 sequence (P32246 1-355): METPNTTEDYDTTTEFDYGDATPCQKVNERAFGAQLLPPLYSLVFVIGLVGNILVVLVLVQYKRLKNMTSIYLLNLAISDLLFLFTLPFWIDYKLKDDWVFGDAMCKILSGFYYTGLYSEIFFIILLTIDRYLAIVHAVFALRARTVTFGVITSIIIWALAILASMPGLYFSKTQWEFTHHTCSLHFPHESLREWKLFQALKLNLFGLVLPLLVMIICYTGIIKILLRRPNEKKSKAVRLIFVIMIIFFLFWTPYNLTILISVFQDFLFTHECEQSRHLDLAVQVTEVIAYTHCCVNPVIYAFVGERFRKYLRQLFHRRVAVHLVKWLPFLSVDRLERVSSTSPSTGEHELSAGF
Outline: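 Displacement of 0.1 nM [125I]-MIP-1α (final) from membranes expressing human CCR1 was measured by scintillation proximity after 4 h at ambient temperature. Conditions: pH 7.4 Tris buffer with 0.1% BSA and MnCl, and 0.5 μg membrane per well. Compounds were tested as a 10-step ½-log series from a 10 mM DMSO stock to derive IC50.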

Cc1nnc([C@H]2CCCN2C(=O)Cc2ccc(F)c(C(F)(F)F)c2)n1Cc1ccc(Cl)cc1 [Compound 504] and Cc1nnc([C@H]2CCCN2C(=O)Nc2ccccc2C(F)(F)F)n1Cc1ccc(Cl)cc1 [Compound 146] fall in the same range of IC50: 50 to 500 nM for the first, 50 to 500 nM for the second.

Compared with Cc1c(NC(=O)N2CCC[C@@H]2c2nnc(C)n2Cc2ccc(Cl)cc2)cccc1C(N)=O [Compound 247], Cc1cccc(C(N)=O)c1NC(=O)N1CCC[C@@H]1c1nnc(C)n1Cc1ccc(Cl)cc1 [Compound 219] is lower in IC50: 500 to 5000 nM for the first, less than 50 nM for the second.

Compared with Cc1nc(-c2ccccc2)sc1NC(=O)N1CCC[C@@H]1c1nccn1Cc1ccc(Cl)cc1 [Compound 36], Cc1noc(-c2ccccc2)c1NC(=O)N1CCC[C@@H]1c1nn(C)c(C)c1Cc1ccc(Cl)cc1 [Compound 9] is higher in IC50: less than 50 nM for the first, 500 to 5000 nM for the second.

First: N#C/N=C(\N[C@H]1CCCc2ccccc21)N1CCC[C@@H]1c1nnnn1Cc1ccc(Cl)cc1 [Compound 50]
Second: O=C(N[C@H]1CCc2ccccc2C1)N1CCC[C@@H]1c1nncn1Cc1ccc(Cl)cc1 [Compound 103]
The IC50 of the first is higher: 500 to 5000 nM for the first, less than 50 nM for the second. The second is the more potent here.

First: CN1C(=O)COc2ccc(NC(=O)N3CCC[C@@H]3c3ncncc3Cc3ccc(Cl)cc3)cc21 [Compound 17]
Second: Cn1ncc(Cc2ccc(Cl)cc2)c1[C@H]1CCCN1C(=O)Nc1ccc(C(F)(F)F)cc1 [Compound 11]
The IC50 of the first is lower: 50 to 500 nM for the first, 500 to 5000 nM for the second.

Compared with Cc1nnc([C@H]2CCCN2C(=O)Nc2ccc(C(F)(F)F)[n+]([O-])c2C)n1Cc1ccc(Cl)cc1 [Compound 519], Cc1nnc([C@H]2CCCN2C(=O)Nc2ccc(F)cc2F)n1Cc1ccc(Cl)cc1 [Compound 422] is higher in IC50: less than 50 nM for the first, 50 to 500 nM for the second.

First: Cc1nc(C(F)(F)F)ccc1NC(=O)N1CCC[C@@H]1c1ncc(C)n1Cc1ccc(Cl)cc1 [Compound 566]
Second: Cc1nc(C(F)(F)F)ccc1NC(=O)N1C[C@H](O)C[C@@H]1c1nnc(C)n1Cc1ccc(Cl)cc1 [Compound 521]
The IC50 of the first is higher: 50 to 500 nM for the first, less than 50 nM for the second. The second is the more potent here.

Cc1nnc([C@H]2CCCN2C(=O)Nc2ccc3[nH]ccc3c2)n1Cc1ccc(Cl)cc1 [Compound 603] and Cc1nnc([C@H]2CCCN2C(=O)Nc2ccc(S(N)(=O)=O)cc2)n1Cc1ccc(Cl)cc1 [Compound 355] fall in the same range of IC50: 500 to 5000 nM for the first, 500 to 5000 nM for the second.

First: Cc1nnc([C@H]2CCCN2C(=O)N[C@H](C)c2cccnc2)n1Cc1ccc(Cl)cc1 [Compound 140]
Second: CC[C@H](NC(=O)N1CCC[C@@H]1c1nnc(C)n1Cc1ccc(Cl)cc1)c1ccccc1 [Compound 181]
The IC50 of the first is higher: 50 to 500 nM for the first, less than 50 nM for the second. The second is the more potent here.

First: Cc1nnc([C@H]2CCCN2C(=O)Nc2cc(C(N)=O)ccc2F)n1Cc1ccc(Cl)cc1 [Compound 294]
Second: Cc1nnc([C@H]2CCCN2C(=O)Nc2cc(C(=O)O)ccc2F)n1Cc1ccc(Cl)cc1 [Compound 282]
The IC50 of the first is lower: 50 to 500 nM for the first, 500 to 5000 nM for the second.

First: COC(=O)c1ccc(F)c(NC(=O)N2CCC[C@@H]2c2nnc(C)n2Cc2ccc(Cl)cc2)c1 [Compound 284]
Second: Cc1nnc([C@H]2CCCN2C(=O)Nc2cc(S(C)(=O)=O)ccc2F)n1Cc1ccc(Cl)cc1 [Compound 376]
The IC50 of the first is lower: less than 50 nM for the first, 50 to 500 nM for the second. The first is the more potent here.

Cc1nnc([C@H]2CCCN2C(=O)NC2(c3ccccc3)CC2)n1C1(c2ccc(Cl)cc2)CC1 [Compound 329] and O=C(NC1(c2ccc(C(F)(F)F)cc2)CC1)N1CCC[C@@H]1c1ncnn1Cc1ccc(Cl)cc1 [Compound 98] fall in the same range of IC50: 50 to 500 nM for the first, 50 to 500 nM for the second.

Compared with Cc1nnc([C@H]2CCCN2C(=S)Nc2ccc(C(F)(F)F)cc2)n1Cc1ccc(Cl)cc1 [Compound 608], Cc1nnc([C@H]2CCCN2C(=O)NCc2ccc(F)cc2)n1Cc1ccc(Cl)cc1 [Compound 228] is higher in IC50: less than 50 nM for the first, 50 to 500 nM for the second.

Cc1nnc([C@H]2CCCN2C(=O)N[C@H]2CCS(=O)(=O)c3ccc(Cl)cc32)n1Cc1ccc(Cl)cc1 [Compound 369] and COc1cc(Cl)ccc1NC(=O)N1CCC[C@@H]1c1nnc(C)n1Cc1ccc(Cl)cc1 [Compound 428] cannot be ordered by IC50: less than 50 nM for the first, less than 50 nM for the second.

CC[C@H](Nc1c(N2CCC[C@@H]2c2nnc(C)n2Cc2ccc(Cl)cc2)c(=O)c1=O)c1cc2ccccc2o1 [Compound 588] and Cc1nnc([C@H]2CCCN2/C(=N/C#N)NCc2ccc(Cl)cc2Cl)n1Cc1ccc(Cl)cc1 [Compound 420] fall in the same range of IC50: 50 to 500 nM for the first, 50 to 500 nM for the second.

— patent publication US8288371B2, “Ortho pyrrolidine, benzyl-substituted heterocycle CCR1 antagonists for autoimmune diseases and inflammation” (Pharmacopeia, LLC, priority 2007, dated 2012)
